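GI50: concentration for 50% inhibition of growth. TGI: total growth inhibition.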
Legend:
Experiment in all cases: growth of human tumour cells (NCI), 384-well format
EKVX NSCLC = test system: EKVX NSCLC
HCT-116 colon = test system: HCT-116 colon
786-0 renal = test system: 786-0 renal
SK-MEL-28 melanoma = test system: SK-MEL-28 melanoma
COLO 205 colon = test system: COLO 205 colon
CCRF-CEM leukemia = test system: CCRF-CEM leukemia
IGROV1 ovarian = test system: IGROV1 ovarian
HCC-2998 colon = test system: HCC-2998 colon
M14 melanoma = test system: M14 melanoma
BT-549 breast = test system: BT-549 breast
SK-MEL-5 melanoma = test system: SK-MEL-5 melanoma
MDA-MB-435 melanoma = test system: MDA-MB-435 melanoma
PC-3 prostate = test system: PC-3 prostate
MDA-MB-231 breast = test system: MDA-MB-231 breast
HT29 colon = test system: HT29 colon
NCI-H226 lung = test system: NCI-H226 lung
NCI-H23 lung = test system: NCI-H23 lung
SR leukemia = test system: SR leukemia
CAKI-1 renal = test system: CAKI-1 renal
UO-31 renal = test system: UO-31 renal
OVCAR-4 ovarian = test system: OVCAR-4 ovarian
SK-MEL-2 melanoma = test system: SK-MEL-2 melanoma
MCF7 breast = test system: MCF7 breast
KM12 colon = test system: KM12 colon
OVCAR-8 ovarian = test system: OVCAR-8 ovarian
SNB-75 CNS = test system: SNB-75 CNS
HCT-15 colon = test system: HCT-15 colon
SN12C renal = test system: SN12C renal
DU-145 prostate = test system: DU-145 prostate
UACC-257 melanoma = test system: UACC-257 melanoma
OVCAR-3 ovarian = test system: OVCAR-3 ovarian
UACC-62 melanoma = test system: UACC-62 melanoma
HOP-62 NSCLC = test system: HOP-62 NSCLC
NCI-H322M lung = test system: NCI-H322M lung
ACHN renal = test system: ACHN renal
T-47D breast = test system: T-47D breast
NCI/ADR-RES ovarian = test system: NCI/ADR-RES ovarian
MDA-MB-468 breast = test system: MDA-MB-468 breast
LOX IMVI melanoma = test system: LOX IMVI melanoma
HS 578T breast = test system: HS 578T breast
MOLT-4 leukemia = test system: MOLT-4 leukemia
SF-268 CNS = test system: SF-268 CNS
HOP-92 NSCLC = test system: HOP-92 NSCLC
SF-295 CNS = test system: SF-295 CNS
SNB-19 CNS = test system: SNB-19 CNS
NCI-H522 lung = test system: NCI-H522 lung
RPMI-8226 leukemia = test system: RPMI-8226 leukemia

Cn1cc(CNCC2CCN(c3ncc(C(=O)NO)cn3)CC2)c2ccccc21
GI50 (EKVX NSCLC): 0.0304 µM
TGI (EKVX NSCLC): 0.303 µM
GI50 (HCT-116 colon): < 0.01 µM
TGI (HCT-116 colon): 0.0157 µM
GI50 (786-0 renal): 0.0228 µM
TGI (786-0 renal): 0.12 µM
GI50 (SK-MEL-28 melanoma): < 0.011 µM
TGI (SK-MEL-28 melanoma): 0.0276 µM
GI50 (COLO 205 colon): < 0.01 µM
TGI (COLO 205 colon): 0.0183 µM
GI50 (CCRF-CEM leukemia): < 0.01 µM
TGI (CCRF-CEM leukemia): < 0.0108 µM
GI50 (IGROV1 ovarian): 0.0102 µM
TGI (IGROV1 ovarian): 0.0237 µM
GI50 (HCC-2998 colon): < 0.0111 µM
TGI (HCC-2998 colon): 0.0248 µM
GI50 (M14 melanoma): < 0.01 µM
TGI (M14 melanoma): 0.105 µM
GI50 (BT-549 breast): 0.0216 µM
TGI (BT-549 breast): 0.0758 µM
GI50 (SK-MEL-5 melanoma): < 0.01 µM
TGI (SK-MEL-5 melanoma): < 0.01 µM
GI50 (MDA-MB-435 melanoma): 0.0121 µM
TGI (MDA-MB-435 melanoma): 0.0297 µM
GI50 (PC-3 prostate): < 0.0123 µM
TGI (PC-3 prostate): 0.0462 µM
GI50 (MDA-MB-231 breast): 0.0143 µM
TGI (MDA-MB-231 breast): 0.0372 µM
GI50 (HT29 colon): 0.01 µM
TGI (HT29 colon): 0.0216 µM
GI50 (NCI-H226 lung): 0.0319 µM
TGI (NCI-H226 lung): 0.115 µM
GI50 (NCI-H23 lung): 0.0131 µM
TGI (NCI-H23 lung): 0.0421 µM
GI50 (SR leukemia): < 0.01 µM
TGI (SR leukemia): < 0.01 µM
GI50 (CAKI-1 renal): < 0.0112 µM
TGI (CAKI-1 renal): 0.026 µM
GI50 (UO-31 renal): 0.0273 µM
TGI (UO-31 renal): 0.123 µM
GI50 (OVCAR-4 ovarian): 0.0189 µM
TGI (OVCAR-4 ovarian): 0.0466 µM
GI50 (SK-MEL-2 melanoma): < 0.01 µM
TGI (SK-MEL-2 melanoma): 0.0106 µM
GI50 (MCF7 breast): < 0.01 µM
TGI (MCF7 breast): 0.0209 µM
GI50 (KM12 colon): 0.0167 µM
TGI (KM12 colon): 0.0636 µM
GI50 (OVCAR-8 ovarian): < 0.01 µM
TGI (OVCAR-8 ovarian): 0.0213 µM
GI50 (SNB-75 CNS): 0.0101 µM
TGI (SNB-75 CNS): 0.0461 µM
GI50 (HCT-15 colon): 0.0494 µM
TGI (HCT-15 colon): 0.3 µM
GI50 (SN12C renal): 0.0141 µM
TGI (SN12C renal): 0.0297 µM
GI50 (DU-145 prostate): < 0.01 µM
TGI (DU-145 prostate): 0.0229 µM
GI50 (UACC-257 melanoma): < 0.01 µM
TGI (UACC-257 melanoma): 0.0236 µM
GI50 (OVCAR-3 ovarian): 0.0122 µM
TGI (OVCAR-3 ovarian): 0.0286 µM
GI50 (UACC-62 melanoma): < 0.01 µM
TGI (UACC-62 melanoma): 0.0149 µM
GI50 (HOP-62 NSCLC): < 0.0118 µM
TGI (HOP-62 NSCLC): 0.0621 µM
GI50 (NCI-H322M lung): 0.0123 µM
TGI (NCI-H322M lung): 0.0405 µM
GI50 (ACHN renal): 0.0143 µM
TGI (ACHN renal): 0.0349 µM
GI50 (T-47D breast): < 0.01 µM
TGI (T-47D breast): 0.0155 µM
GI50 (NCI/ADR-RES ovarian): 0.0949 µM
TGI (NCI/ADR-RES ovarian): 0.329 µM
GI50 (MDA-MB-468 breast): < 0.01 µM
TGI (MDA-MB-468 breast): < 0.01 µM
GI50 (LOX IMVI melanoma): 0.0121 µM
TGI (LOX IMVI melanoma): 0.0249 µM
GI50 (HS 578T breast): < 0.0104 µM
TGI (HS 578T breast): 0.0224 µM
GI50 (MOLT-4 leukemia): < 0.01 µM
TGI (MOLT-4 leukemia): < 0.01 µM
GI50 (SF-268 CNS): < 0.0104 µM
TGI (SF-268 CNS): 0.0244 µM
GI50 (HOP-92 NSCLC): < 0.0122 µM
TGI (HOP-92 NSCLC): 0.0317 µM
GI50 (SF-295 CNS): 0.0161 µM
TGI (SF-295 CNS): 0.0544 µM
GI50 (SNB-19 CNS): 0.0173 µM
TGI (SNB-19 CNS): 0.0457 µM
GI50 (NCI-H522 lung): < 0.01 µM
TGI (NCI-H522 lung): 0.0208 µM
GI50 (RPMI-8226 leukemia): < 0.01 µM
TGI (RPMI-8226 leukemia): < 0.01 µM

From PubChem BioAssay (NCI)
